Data reported in PubChem BioAssay AID2060329 (Molecular Pharmacology Branch, DTP, NCI, 2025).
pIC50: −log10 of the molar value. Where “and” joins values, the source holds several entries; their conditions need not be identical. Equal entries are not always repeated.

System: MCF7 multi-cell spheroids with HUVEC/MSC, viability
Assay: Anticancer human tumor MCF7 cell line growth inhibition [IpAb];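 also: spheroids exposed to agents for seven days before readout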
Conditions: for viability, T/C: stronger effect = lower value
Source text: Combinatorial screen of targeted agents with ipatasertib and abemaciclib in multi-cell type tumor spheroids
A high-throughput screen of multi-cell type tumor spheroids was designed to identify active combinations of targeted small molecules and ipatasertib or abemaciclib. Complex spheroids include a stromal component modeled by human endothelial cells (HUVEC) and fibroblasts modeled by human mesenchymal stem cells (MSCs). The concentration ranges selected for each drug and investigational agent were based upon clinically achievable concentrations if the clinical Cmax of the agent was known.
Compounds. The drugs and investigational agents: ipatasertib (NSC767898), abemaciclib(NSC768073), selumetinib (NSC741078), trametinib (758246), adavosertib (NSC754352), everolimus (NSC733504), sapanisertib (NSC764658), vemurafenib (NSC761431), venetoclax (NSC766270), copanlisib (NSC809693), apelisib (NSC765974), palbociblib (NSC758247), vemurafenib (NSC761431), dabrafenib (NSC764134), ravoxertinib (NSC781343), BMS-387032 (NSC767048), sotorasib (NSC818433), talazoparib (NSC767125) and afursertib (NSC778305), were obtained from the National Cancer Institute (NCI) Developmental Therapeutics Program Chemical Repository. The FDA-approved anticancer drug set is available from the NCI Developmental Therapeutics Program. […] The stock solutions were prepared in dimethyl sulfoxide (DMSO, Sigma-Aldrich, St. Louis, MO, cat. D2650) at 800-fold the tested concentration and stored at -70 degrees C prior to their use. All drugs and investigational agents were tested over a range starting from a high concentration at or near the clinical Cmax and decreasing in half-log increments. If the clinical Cmax for an agent had not been determined, the highest concentration tested was 10 microM.
NCI60 Cell Culture. NCI60 cell lines were obtained from the NCI Developmental Therapeutics Program Tumor Repository. For each lot of cells, the Repository performed Applied Biosystems AmpFLSTR Identifiler testing with PCR amplification to confirm consistency with the published Identifier STR profile for each cell line. Cells were kept in continuous culture for no more than 20 passages. The optimal seeding densities for each of the cell lines at each time point assessed were determined prior to performing the concentration response studies. Briefly, the NCI60 human tumor lines were grown as monolayers in RPMI 1640 medium supplemented with 10% FBS and 2 mmol/L L-glutamine.
An additional 9 lines were from the NCI60 cell line panel including MDA-MB-231 breast carcinoma, MDA-MB-468 breast carcinoma, MCF7 breast carcinoma, Hs578T breast carcinoma, MALME-3M melanoma, SK-MEL-2 melanoma, SK-OV-3 ovarian carcinoma, DU-145 prostate carcinoma, PC-3 prostate carcinoma, all cell lines along with major genetic alterations are listed on Table 2. Pooled donor human umbilical vein endothelial cells (HUVEC, Lonza, cat. CC-2519) and human mesenchymal stem cells (hMSC, Lonza, cat. PT-2501) were purchased from Lonza (Walkersville, MD).
PDMR cell lines were grown in complete medium (DC medium): Dulbecco's modified Eagle's medium (DMEM)/F12 supplemented with 5% fetal bovine serum (FBS), 2 mM L-glutamine, 100 U/mL penicillin and 100 µg/ml streptomycin, 0.4 µg/ml hydrocortisone, 10 ng/ml epidermal growth factor (EGF) recombinant human protein, 24 µg/mL adenine, and 0.1 mg/mL primocin. During culture from frozen stock vials, PDMR cells were cultured in the same medium containing 10 µM Y-27632 (see Table 3). The PDCs were cultured in complete DMEM/F12 media without 10 microM Y-27632 dihydrochloride for at least two passages prior to the screen. The pooled donor HUVEC and hMSC were cultured in endothelial cell growth medium 2 (PromoCell, Heidelberg, Germany, cat. C-22011) and mesenchymal stem cell growth medium 2 (PromoCell, cat. C-28009), respectively. For all experiments, HUVEC and hMSC were used at passages </=5.
[…]

| Structure (SMILES) | viability, T/C (compound 0.0316 µM) | viability, T/C (compound 0.1 µM) | viability, T/C (compound 0.316 µM) | viability, T/C (compound 1 µM) | viability, T/C (compound 3.16 µM) | viability, T/C (compound 10 µM) | pIC50 (curve of compound) | further results |
| --- | --- | --- | --- | --- | --- | --- | --- | --- |
| C=CC(=O)N1CCN(c2nc(=O)n(-c3c(C)ccnc3C(C)C)c3nc(-c4c(O)cccc4F)c(F)cc23)C(C)C1 (centres undefined) | 98.6% and 117% | 106% | 102% and 121% | 103% and 107% | 107% and 83.4% | 71.2% and 76.7% | < 5.00 | – |
| C=CCn1c(=O)c2cnc(Nc3ccc(N4CCN(C)CC4)cc3)nc2n1-c1cccc(C(C)(C)O)n1 | 104% and 99.2% | 98.9% and 108% | 58.2% and 76.1% | 34% and 44.2% | 28.5% and 29.7% | 28.2% and 33.6% | 6.33 and 6.12 | – |
| CC(=O)c1c(C)c2cnc(Nc3ccc(N4CCNCC4)cn3)nc2n(C2CCCC2)c1=O | – | – | – | – | – | – | < 6.52 | viability, T/C (compound 0.000949 µM): 119% and 97.4%; viability, T/C (compound 0.003 µM): 101% and 97.1%; viability, T/C (compound 0.00949 µM): 95.5% and 95.7%; viability, T/C (compound 0.03 µM): 96.1% and 115%; viability, T/C (compound 0.0949 µM): 109% and 95.9%; viability, T/C (compound 0.3 µM): 89.2% and 104% |
| CC(C)(C)c1cnc(CSc2cnc(NC(=O)C3CCNCC3)s2)o1 | – | – | – | – | – | – | 7.00 and 7.12 | viability, T/C (compound 0.00949 µM): 105% and 109%; viability, T/C (compound 0.03 µM): 100% and 104%; viability, T/C (compound 0.0949 µM): 51.5% and 37.9%; viability, T/C (compound 0.3 µM): 22% and 24.1%; viability, T/C (compound 0.949 µM): 27.4% and 28.2%; viability, T/C (compound 3 µM): 35.6% and 32.6% |
| CC(C)n1nc(-c2ccc3oc(N)nc3c2)c2c(N)ncnc21 | 42.5% and 29.7% | 25% and 22.1% | – | – | – | – | 7.59 and 7.79 | viability, T/C (compound 0.000316 µM): 98.9% and 88.3%; viability, T/C (compound 0.001 µM): 86.4% and 81.6%; viability, T/C (compound 0.00316 µM): 80.8% and 82.8%; viability, T/C (compound 0.01 µM): 73.5% and 65.5% |
| CC1(C)CCC(CN2CCN(c3ccc(C(=O)NS(=O)(=O)c4ccc(NCC5CCOCC5)c([N+](=O)[O-])c4)c(Oc4cnc5[nH]ccc5c4)c3)CC2)=C(c2ccc(Cl)cc2)C1 | 88.4% and 102% | 102% and 108% | 97.2% and 109% | 94.4% and 98.2% | 84.6% and 98.1% | 16.5% and 20.3% | 5.25 and 5.19 | – |
| CCCS(=O)(=O)Nc1ccc(F)c(C(=O)c2c[nH]c3ncc(-c4ccc(Cl)cc4)cc23)c1F | 102% and 98.6% | 106% and 100% | 102% and 96.2% | 104% and 97% | 99.4% and 93.1% | 105% and 97.9% | < 5.00 | – |
| CCN1CCN(Cc2ccc(Nc3ncc(F)c(-c4cc(F)c5nc(C)n(C(C)C)c5c4)n3)nc2)CC1 | 101% [middle of 13 runs] | – | – | – | – | – | – | viability, T/C (compound 0.01 µM): 97.5% [middle of 13 runs]; pIC50 (compound alone, run of 06/01/2021): < 6.00 |
| COc1c(OCCCN2CCOCC2)ccc2c3n(c(=NC(=O)c4cnc(N)nc4)nc12)CCN3 | 64.7% and 59.9% | 32% and 36.9% | 14% and 10.5% | 14.2% and 13.4% | – | – | 7.28 | viability, T/C (compound 0.00316 µM): 89.3% and 87.5%; viability, T/C (compound 0.01 µM): 80.2% and 84.9% |
| Cc1nc(NC(=O)N2CCCC2C(N)=O)sc1-c1ccnc(C(C)(C)C(F)(F)F)c1 (centres undefined) | 74.8% and 93.7% | 64.7% and 93.4% | 65.9% and 78.8% | 47.6% and 70.3% | 48.1% and 63.4% | 36.2% and 43% | 5.81 and 5.18 | – |
| Cn1cnc2c(F)c(Nc3ccc(Br)cc3Cl)c(C(=O)NOCCO)cc21 | – | – | – | – | – | – | < 5.52 | viability, T/C (compound 0.00949 µM): 97.5% and 94.6%; viability, T/C (compound 0.03 µM): 102% and 98%; viability, T/C (compound 0.0949 µM): 105% and 97.7%; viability, T/C (compound 0.3 µM): 103% and 116%; viability, T/C (compound 0.949 µM): 107% and 102%; viability, T/C (compound 3 µM): 111% and 109% |
| Cn1ncc(Cl)c1-c1cc(C(=O)NC(CN)Cc2cccc(F)c2)sc1Cl (centres undefined) | 89.2% and 85.5% | 88.8% and 84.4% | 79.7% and 72.8% | 57.6% and 50.1% | 8.42% and 19.3% | 0.22% and 0.25% | 5.93 and 6.00 | – |
| Cn1nccc1Nc1nccc(-c2ccn(C(CO)c3ccc(Cl)c(F)c3)c(=O)c2)n1 (centres undefined) | 96.3% and 104% | 96.2% and 111% | 116% and 119% | 129% and 118% | 128% and 143% | 88.5% and 102% | < 5.00 | – |
| Cn1ncnc1[C@H]1c2n[nH]c(=O)c3cc(F)cc(c23)N[C@@H]1c1ccc(F)cc1 | 94% and 102% | 85.9% and 102% | – | – | – | – | < 7.00 | viability, T/C (compound 0.000316 µM): 139% and 91.4%; viability, T/C (compound 0.001 µM): 97.3% and 97.9%; viability, T/C (compound 0.00316 µM): 92.7% and 90%; viability, T/C (compound 0.01 µM): 90.3% and 100% |
